What was measured:
[1] = Ultraviolet and visible absorption spectrum (absorbance at i-, h- and g-line); assay type: physicochemical; conditions: measurement solvent dichloromethane
Description: [3] Ultraviolet and visible absorption spectrum Types of machines: Varian Cary4000 manufactured by Agilent Technologies, Inc.
(§1) Measurement solvent: Dichloromethane
Absorption spectrums of compounds obtained in Examples 1 to 5 were measured. Furthermore, N-trifluoromethanesulfonyloxy-1,8-naphthalimide was used as a comparative example.

[2] = Evaluation test of acid generating ability (UV irradiation, BCG pH probe); assay type: physicochemical; conditions: solution in dichloromethane with BCG, before irradiation
Description: It was measured and evaluated by devices and a method (Evaluation test of acid generating ability) described below whether compounds obtained in Examples above acted as an acid generator under photoirradiation. The actual evaluation was conducted by use of Compound 1H. Devices used in evaluation are as follows.
as §1
(1) […] Compound 1H solution in dichloromethane was prepared and a few drops of 50% bromocresolgreen (BCG) solution in ethanol were added in this solution as pH probe.
(2) The absorption spectrum of the solution was measured and it was checked that there are maximum absorption spectrums of Compound 1H in 300-400 nm and BOG in 630 nm. The color of this solution was dark blue.
(3) The absorption spectrum of the solution was measured every 2 minutes while irradiating the solution described (2) above by UV lamp. At this time, the progress of attenuation concerning absorption maximum of BCG spectrum and the discoloration situation of dark blue color in the solution due to the pH decline of the system by generation of acids were observed by eyes.

O=C1c2cccc3cccc(c23)C(=O)N1OS(=O)(=O)C(F)(F)F [Comparative example, N-trifluoromethanesulfonyloxy-1,8-naphthalimide, reference compound]
absorbance 365 nm (i-line) [1]: 0.02925 | absorbance 405 nm (h-line) [1]: 0.005575 | absorbance 436 nm (g-line) [1]: 0.004642

O=C1c2cccc3c(C#Cc4ccccc4)ccc(c23)C(=O)N1OS(=O)(=O)C(F)(F)F [Compound 1H, N-trifluoromethanesulfonyloxy-4-phenylethynyl-1,8-naphthalimide]
absorbance 365 nm (i-line) [1]: 0.4162 | absorbance 405 nm (h-line) [1]: 0.5112 | absorbance 436 nm (g-line) [1]: 0.01499 | maximum absorption spectrum [2]: 300-400 nm

Reference: patent publication US9505721B2, “Aromatic imide compound and method for producing same” (AZ ELECTRONIC MATERIALS (LUXEMBOURG) S.A.R.L., priority 2012, dated 2016)
